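Protocol summary: plate cells (96-well), add compound at 5 concentrations, incubate 48 h, interpolate endpoints linearly. TGI marks complete inhibition of growth.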
tested on: MCF7 breast; assay: NCI tumour cell line growth inhibition, 48 h

Structure (SMILES)	TGI
CNC(=O)OCC1=C(COC(=O)NC)C(C)N(c2ccc(OC)cc2)C1 (stereo not given)	> 100 µM
O=C1CCC(=O)N1n1c(Cc2ccccc2)n[nH]c1=O	> 100 µM
Cc1nc(C(N)=S)sc1/C(CC(=O)C(=O)Nc1cccc2ccc(O)cc12)=N\NC(=O)c1ccncc1	> 100 µM
O=C(O)c1cccc2c1/C(=N/Nc1ccccc1)CC2	> 100 µM
O=C(Cc1cccs1)N[C@@H]1C(=O)N2C(C(=O)OC(c3ccccc3)c3ccccc3)=C(CO)CS[C@H]12	> 100 µM
C=C1c2nc3ccccc3n2C=C(c2ccccc2)N1c1ccc([N+](=O)[O-])cc1	> 37.9 µM
Cc1ccccc1-n1c(=O)c2ncn(CCCl)c2n(-c2ccccc2C)c1=S	> 100 µM

tested on: MDA-MB-435; assay: NCI tumour cell line growth inhibition, 48 h

Structure (SMILES)	TGI
CNC(=O)OCC1=C(COC(=O)NC)C(C)N(c2ccc(OC)cc2)C1 (stereo not given)	> 100 µM
O=C1CCC(=O)N1n1c(Cc2ccccc2)n[nH]c1=O	> 100 µM
Cc1nc(C(N)=S)sc1/C(CC(=O)C(=O)Nc1cccc2ccc(O)cc12)=N\NC(=O)c1ccncc1	> 100 µM
O=C(O)c1cccc2c1/C(=N/Nc1ccccc1)CC2	> 100 µM
O=C(Cc1cccs1)N[C@@H]1C(=O)N2C(C(=O)OC(c3ccccc3)c3ccccc3)=C(CO)CS[C@H]12	> 100 µM
C=C1c2nc3ccccc3n2C=C(c2ccccc2)N1c1ccc([N+](=O)[O-])cc1	32.6 µM
Cc1ccccc1-n1c(=O)c2ncn(CCCl)c2n(-c2ccccc2C)c1=S	> 100 µM

tested on: MOLT-4 leukemia; assay: NCI tumour cell line growth inhibition, 48 h

Structure (SMILES)	TGI
CNC(=O)OCC1=C(COC(=O)NC)C(C)N(c2ccc(OC)cc2)C1 (stereo not given)	> 100 µM
O=C1CCC(=O)N1n1c(Cc2ccccc2)n[nH]c1=O	> 100 µM
Cc1nc(C(N)=S)sc1/C(CC(=O)C(=O)Nc1cccc2ccc(O)cc12)=N\NC(=O)c1ccncc1	74.3 µM
O=C(O)c1cccc2c1/C(=N/Nc1ccccc1)CC2	> 100 µM
O=C(Cc1cccs1)N[C@@H]1C(=O)N2C(C(=O)OC(c3ccccc3)c3ccccc3)=C(CO)CS[C@H]12	> 100 µM
C=C1c2nc3ccccc3n2C=C(c2ccccc2)N1c1ccc([N+](=O)[O-])cc1	> 100 µM
Cc1ccccc1-n1c(=O)c2ncn(CCCl)c2n(-c2ccccc2C)c1=S	> 100 µM

tested on: NCI-H226 lung; assay: NCI tumour cell line growth inhibition, 48 h

Structure (SMILES)	TGI
CNC(=O)OCC1=C(COC(=O)NC)C(C)N(c2ccc(OC)cc2)C1 (stereo not given)	6.21 µM
O=C1CCC(=O)N1n1c(Cc2ccccc2)n[nH]c1=O	> 100 µM
Cc1nc(C(N)=S)sc1/C(CC(=O)C(=O)Nc1cccc2ccc(O)cc12)=N\NC(=O)c1ccncc1	> 100 µM
O=C(O)c1cccc2c1/C(=N/Nc1ccccc1)CC2	98.9 µM
O=C(Cc1cccs1)N[C@@H]1C(=O)N2C(C(=O)OC(c3ccccc3)c3ccccc3)=C(CO)CS[C@H]12	96.9 µM
C=C1c2nc3ccccc3n2C=C(c2ccccc2)N1c1ccc([N+](=O)[O-])cc1	27.6 µM
Cc1ccccc1-n1c(=O)c2ncn(CCCl)c2n(-c2ccccc2C)c1=S	> 100 µM

tested on: NCI-H460 lung; assay: NCI tumour cell line growth inhibition, 48 h

Structure (SMILES)	TGI
CNC(=O)OCC1=C(COC(=O)NC)C(C)N(c2ccc(OC)cc2)C1 (stereo not given)	> 100 µM
O=C1CCC(=O)N1n1c(Cc2ccccc2)n[nH]c1=O	> 100 µM
Cc1nc(C(N)=S)sc1/C(CC(=O)C(=O)Nc1cccc2ccc(O)cc12)=N\NC(=O)c1ccncc1	64.6 µM
O=C(O)c1cccc2c1/C(=N/Nc1ccccc1)CC2	> 100 µM
O=C(Cc1cccs1)N[C@@H]1C(=O)N2C(C(=O)OC(c3ccccc3)c3ccccc3)=C(CO)CS[C@H]12	> 100 µM
C=C1c2nc3ccccc3n2C=C(c2ccccc2)N1c1ccc([N+](=O)[O-])cc1	6.6 µM
Cc1ccccc1-n1c(=O)c2ncn(CCCl)c2n(-c2ccccc2C)c1=S	> 100 µM

tested on: OVCAR-4 ovarian; assay: NCI tumour cell line growth inhibition, 48 h

Structure (SMILES)	TGI
CNC(=O)OCC1=C(COC(=O)NC)C(C)N(c2ccc(OC)cc2)C1 (stereo not given)	> 100 µM
O=C1CCC(=O)N1n1c(Cc2ccccc2)n[nH]c1=O	> 100 µM
Cc1nc(C(N)=S)sc1/C(CC(=O)C(=O)Nc1cccc2ccc(O)cc12)=N\NC(=O)c1ccncc1	> 100 µM
O=C(O)c1cccc2c1/C(=N/Nc1ccccc1)CC2	> 100 µM
O=C(Cc1cccs1)N[C@@H]1C(=O)N2C(C(=O)OC(c3ccccc3)c3ccccc3)=C(CO)CS[C@H]12	> 100 µM
C=C1c2nc3ccccc3n2C=C(c2ccccc2)N1c1ccc([N+](=O)[O-])cc1	2.29 µM
Cc1ccccc1-n1c(=O)c2ncn(CCCl)c2n(-c2ccccc2C)c1=S	> 100 µM

tested on: PC-3 prostate; assay: NCI tumour cell line growth inhibition, 48 h

Structure (SMILES)	TGI
CNC(=O)OCC1=C(COC(=O)NC)C(C)N(c2ccc(OC)cc2)C1 (stereo not given)	> 100 µM
O=C1CCC(=O)N1n1c(Cc2ccccc2)n[nH]c1=O	> 100 µM
Cc1nc(C(N)=S)sc1/C(CC(=O)C(=O)Nc1cccc2ccc(O)cc12)=N\NC(=O)c1ccncc1	> 100 µM
O=C(O)c1cccc2c1/C(=N/Nc1ccccc1)CC2	> 100 µM
O=C(Cc1cccs1)N[C@@H]1C(=O)N2C(C(=O)OC(c3ccccc3)c3ccccc3)=C(CO)CS[C@H]12	> 100 µM
C=C1c2nc3ccccc3n2C=C(c2ccccc2)N1c1ccc([N+](=O)[O-])cc1	68.2 µM
Cc1ccccc1-n1c(=O)c2ncn(CCCl)c2n(-c2ccccc2C)c1=S	> 100 µM

tested on: SK-OV-3 ovarian; assay: NCI tumour cell line growth inhibition, 48 h

Structure (SMILES)	TGI
CNC(=O)OCC1=C(COC(=O)NC)C(C)N(c2ccc(OC)cc2)C1 (stereo not given)	> 100 µM
O=C1CCC(=O)N1n1c(Cc2ccccc2)n[nH]c1=O	> 100 µM
Cc1nc(C(N)=S)sc1/C(CC(=O)C(=O)Nc1cccc2ccc(O)cc12)=N\NC(=O)c1ccncc1	> 100 µM
O=C(O)c1cccc2c1/C(=N/Nc1ccccc1)CC2	> 100 µM
O=C(Cc1cccs1)N[C@@H]1C(=O)N2C(C(=O)OC(c3ccccc3)c3ccccc3)=C(CO)CS[C@H]12	> 100 µM
C=C1c2nc3ccccc3n2C=C(c2ccccc2)N1c1ccc([N+](=O)[O-])cc1	15.3 µM
Cc1ccccc1-n1c(=O)c2ncn(CCCl)c2n(-c2ccccc2C)c1=S	> 100 µM

tested on: TK-10 renal; assay: NCI tumour cell line growth inhibition, 48 h

Structure (SMILES)	TGI
CNC(=O)OCC1=C(COC(=O)NC)C(C)N(c2ccc(OC)cc2)C1 (stereo not given)	73 µM
O=C1CCC(=O)N1n1c(Cc2ccccc2)n[nH]c1=O	> 100 µM
Cc1nc(C(N)=S)sc1/C(CC(=O)C(=O)Nc1cccc2ccc(O)cc12)=N\NC(=O)c1ccncc1	> 100 µM
O=C(O)c1cccc2c1/C(=N/Nc1ccccc1)CC2	> 100 µM
O=C(Cc1cccs1)N[C@@H]1C(=O)N2C(C(=O)OC(c3ccccc3)c3ccccc3)=C(CO)CS[C@H]12	> 100 µM
C=C1c2nc3ccccc3n2C=C(c2ccccc2)N1c1ccc([N+](=O)[O-])cc1	22.1 µM
Cc1ccccc1-n1c(=O)c2ncn(CCCl)c2n(-c2ccccc2C)c1=S	> 100 µM

tested on: UO-31 renal; assay: NCI tumour cell line growth inhibition, 48 h

Structure (SMILES)	TGI
CNC(=O)OCC1=C(COC(=O)NC)C(C)N(c2ccc(OC)cc2)C1 (stereo not given)	> 100 µM
O=C1CCC(=O)N1n1c(Cc2ccccc2)n[nH]c1=O	> 100 µM
Cc1nc(C(N)=S)sc1/C(CC(=O)C(=O)Nc1cccc2ccc(O)cc12)=N\NC(=O)c1ccncc1	> 100 µM
O=C(O)c1cccc2c1/C(=N/Nc1ccccc1)CC2	> 100 µM
O=C(Cc1cccs1)N[C@@H]1C(=O)N2C(C(=O)OC(c3ccccc3)c3ccccc3)=C(CO)CS[C@H]12	> 100 µM
C=C1c2nc3ccccc3n2C=C(c2ccccc2)N1c1ccc([N+](=O)[O-])cc1	16 µM
Cc1ccccc1-n1c(=O)c2ncn(CCCl)c2n(-c2ccccc2C)c1=S	> 100 µM

— PubChem BioAssay (NCI)
